The values below come from EP4667483A1, “HUMAN TRANSFERRIN RECEPTOR-BINDING PEPTIDE” (JCR Pharmaceuticals Co., Ltd., priority 2023, dated 2024).

pKd: −log10 of the molar value. Bridge positions count the residues as written; N and C are the ends. Square brackets hold non-standard residues; d marks the D form. Peptide text beside a SMILES is read from it. * marks the point of attachment. Ala(imidazo(1,2-a)pyr3yl) = N[C@@H](Cc1cnc2ccccn12)C(=O)O; Trp(1-CH2COOH) = N[C@@H](Cc1cn(CC(=O)O)c2ccccc12)C(=O)O; CH2CON(CH2CH2)2NCH2COOH = O=C(O)CN1CCN(C(=O)C*)CC1; NMePhe(4-COOH) = CN[C@@H](Cc1ccc(C(=O)O)cc1)C(=O)O; Nle(6-morpholino) = N[C@@H](CCCCN1CCOCC1)C(=O)O; Phe(3-COOH) = N[C@@H](Cc1cccc(C(=O)O)c1)C(=O)O; Trp(7-aza) = N[C@@H](Cc1c[nH]c2ncccc12)C(=O)O; NMePhe(3-Cl) = CN[C@@H](Cc1cccc(Cl)c1)C(=O)O; Trp(1-Me) = Cn1cc(C[C@H](N)C(=O)O)c2ccccc21; 3Pal(6-OMe) = COc1ccc(C[C@H](N)C(=O)O)cn1; 3Pal(6-NH2) = Nc1ccc(C[C@H](N)C(=O)O)cn1; Lys(N3) = [N-]=[N+]=NCCCC[C@H](N)C(=O)O; NMeY = CN[C@@H](Cc1ccc(O)cc1)C(=O)O; Nva(3-Et) = CCC(CC)[C@H](N)C(=O)O; NMeF = CN[C@@H](Cc1ccccc1)C(=O)O; 4Pal = N[C@@H](Cc1ccncc1)C(=O)O; PEG4 = NCCOCCOCCOCCOCCC(=O)O; Carboxymethyl = O=C(O)C*

Test [1] has as its target T1, human transferrin receptor (hTfR) (Homo sapiens, UniProt P02786). Briefly: SPR measurement under pH 7.4 conditions (Biacore T200, CM3 chip, hTfR captured by His Tag antibody). The class given is binding. The settings on record: read-out: hTfR SPR pH7.4 KD. On the technique in general: In SPR one partner is held on a chip, and binding of the other changes the refractive index at the surface.

Test [2] has as its target T1, human transferrin receptor (hTfR). Briefly: SPR measurement under pH 6.0 conditions (Biacore T200, NTA chip, immobilized hTfR). Format: binding. The settings on record: read-out: hTfR SPR pH6.0 KD.
[3] abbreviates: SPR, pH 7.4, peptide with the linker named in the table.
[4] abbreviates: SPR, pH 6.0, peptide with the linker named in the table.

T1 sequence (P02786 whole entry): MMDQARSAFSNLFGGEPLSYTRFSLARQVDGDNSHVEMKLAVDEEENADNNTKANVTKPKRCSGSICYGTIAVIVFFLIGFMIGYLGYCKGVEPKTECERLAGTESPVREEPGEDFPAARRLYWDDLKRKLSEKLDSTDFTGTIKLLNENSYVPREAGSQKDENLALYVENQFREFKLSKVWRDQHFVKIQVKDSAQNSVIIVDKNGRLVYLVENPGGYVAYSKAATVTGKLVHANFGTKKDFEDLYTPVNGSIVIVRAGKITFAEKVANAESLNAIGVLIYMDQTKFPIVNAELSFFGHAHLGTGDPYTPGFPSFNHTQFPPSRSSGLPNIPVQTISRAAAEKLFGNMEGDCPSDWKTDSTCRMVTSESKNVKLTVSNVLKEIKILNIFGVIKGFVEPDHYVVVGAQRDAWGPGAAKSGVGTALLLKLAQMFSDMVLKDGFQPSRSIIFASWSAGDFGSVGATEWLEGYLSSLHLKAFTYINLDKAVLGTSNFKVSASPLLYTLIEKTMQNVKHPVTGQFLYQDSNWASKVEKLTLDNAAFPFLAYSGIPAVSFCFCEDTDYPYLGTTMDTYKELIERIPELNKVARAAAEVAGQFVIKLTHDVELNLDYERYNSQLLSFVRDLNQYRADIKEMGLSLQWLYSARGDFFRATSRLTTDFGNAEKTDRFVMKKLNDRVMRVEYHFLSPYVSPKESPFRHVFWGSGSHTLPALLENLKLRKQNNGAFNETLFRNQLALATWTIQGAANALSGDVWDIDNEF

What is called pKd is the negative decadic logarithm of the Kd, by convention in mol/L. For `CCC(CC)[C@@H]1NC(=O)[C@H](Cc2ccc(OCC(=O)O)cc2)NC(=O)[C@H](Cc2ccc(O)cc2)NC(=O)[C@H](CC(N)=O)NC(=O)[C@H](Cc2cn(CC(=O)O)c3ccccc23)NC(=O)[C@H](C(C)C)NC(=O)[C@H](Cc2cccc(Cl)c2)N(C)C(=O)[C@H](C(C)C)NC(=O)[C@H](C)NC(=O)CSC[C@@H](C(=O)NCCOCCOCCOCCOCCC(N)=O)NC(=O)[C@H](Cc2ccc(O)cc2)N(C)C(=O)[C@H](Cc2ccc(OC)nc2)NC(=O)[C@H](CCCNC(=N)N)NC(=O)[C@H](CCC(N)=O)NC(=O)[C@H]([C@@H](C)CC)NC1=O` [compound 101] ({CH2CO}-AV[NMePhe(3-Cl)]V[Trp(1-CH2COOH)]NYY(Carboxymethyl)[Nva(3-Et)]IQR[3Pal(6-OMe)][NMeY]C[PEG4]-NH2; thioether N-15), the pKd was 8.06 in test [1] (setting [3]) and 7.18 in test [2] (setting [4]).

In the case of `CCC(CC)[C@@H]1NC(=O)[C@H](Cc2ccc(OCC(=O)O)cc2)NC(=O)[C@H](Cc2ccc(O)cc2)NC(=O)[C@H](CC(N)=O)NC(=O)[C@H](Cc2cn(CC(=O)O)c3ccccc23)NC(=O)[C@H](C(C)C)NC(=O)[C@H](Cc2cccc(Cl)c2)N(C)C(=O)[C@H](C(C)C)NC(=O)[C@H](C)NC(=O)CSC[C@@H](C(=O)NCCOCCOCCOCCOCCC(N)=O)NC(=O)[C@H](Cc2ccc(O)cc2)N(C)C(=O)[C@H](Cc2cccc(C(=O)O)c2)NC(=O)[C@H](CCCCN2CCOCC2)NC(=O)[C@H](CCCCN2CCOCC2)NC(=O)[C@H]([C@@H](C)CC)NC1=O` [compound 109] ({CH2CO}-AV[NMePhe(3-Cl)]V[Trp(1-CH2COOH)]NYY(Carboxymethyl)[Nva(3-Et)]I[Nle(6-morpholino)][Nle(6-morpholino)][Phe(3-COOH)][NMeY]C[PEG4]-NH2; thioether N-15), the figures for the pKd in test [1] (setting [3]) and in test [2] (setting [4]) were 8.16 and 7.95, respectively.

Consider `CC[C@H](C)[C@@H]1NC(=O)[C@H](Cc2ccc(OCC(=O)NC[C@H](O)[C@@H](O)[C@H](O)[C@H](O)CO)cc2)NC(=O)[C@H](Cc2ccc(O)cc2)NC(=O)[C@H](CC(N)=O)NC(=O)[C@H](Cc2c[nH]c3ncccc23)NC(=O)[C@H](C(C)C)NC(=O)[C@H](Cc2cccc(Cl)c2)N(C)C(=O)[C@H](C(C)C)NC(=O)[C@H](C)NC(=O)CSC[C@@H](C(=O)NCCOCCOCCOCCOCCC(N)=O)NC(=O)[C@H](Cc2ccc(O)cc2)N(C)C(=O)[C@H](Cc2ccncc2)NC(=O)[C@H](CCCCN2CCOCC2)NC(=O)[C@H](CCC(=O)NC[C@H](O)[C@@H](O)[C@H](O)[C@H](O)CO)NC(=O)[C@H]([C@@H](C)CC)NC1=O` [compound 27], for which the pKd was 8.52 in test [1] (pH 7.4, single-cycle kinetics) and 7.81 in test [2] (pH 6.0, single-cycle kinetics).

For the molecule `CCC(CC)[C@@H]1NC(=O)[C@H](Cc2ccc(OC)cc2)NC(=O)[C@H](Cc2ccc(O)cc2)NC(=O)[C@H](CC(N)=O)NC(=O)[C@H](Cc2c[nH]c3ncccc23)NC(=O)[C@H](C(C)C)NC(=O)[C@H](Cc2cccc(Cl)c2)N(C)C(=O)[C@H](C(C)C)NC(=O)[C@H](C)NC(=O)CSC[C@@H](C(=O)NCCOCCOCCOCCOCCC(N)=O)NC(=O)[C@H](Cc2ccc(O)cc2)N(C)C(=O)[C@H](Cc2ccncc2)NC(=O)[C@H](CCCNC(=N)N)NC(=O)[C@H](CCCCN2CCOCC2)NC(=O)[C@H]([C@@H](C)CC)NC1=O` [compound 54] ({CH2CO}-AV[NMePhe(3-Cl)]V[Trp(7-aza)]NYY(Me)[Nva(3-Et)]I[Nle(6-morpholino)]R[4Pal][NMeY]C[PEG4]-NH2; thioether N-15), the negative logarithm of the Kd (pKd) in test [1] (pH 7.4, single-cycle kinetics) was 8.86; in test [2] (pH 6.0, single-cycle kinetics) it was 8.04.

On to `CCC(CC)[C@@H]1NC(=O)[C@H](Cc2ccc(O)cc2)NC(=O)[C@H](Cc2ccc(O)cc2)NC(=O)[C@H](CC(N)=O)NC(=O)[C@H](Cc2cn(C)c3ccccc23)NC(=O)[C@H](C(C)C)NC(=O)[C@H](Cc2cccc(Cl)c2)N(C)C(=O)[C@H](C(C)C)NC(=O)[C@H](C)NC(=O)CSC[C@@H](C(=O)NCCOCCOCCOCCOCCC(N)=O)NC(=O)[C@H](Cc2ccc(O)cc2)N(C)C(=O)[C@H](Cc2ccncc2)NC(=O)[C@H](CCCNC(=N)N)NC(=O)[C@H](CCCCN)NC(=O)[C@H]([C@@H](C)CC)NC1=O` [compound 127] ({CH2CO}-AV[NMePhe(3-Cl)]V[Trp(1-Me)]NYY[Nva(3-Et)]IKR[4Pal][NMeY]C[PEG4]-NH2; thioether N-15), for which the pKd in test [1] (setting [3]) was 8.80; in test [2] (setting [4]), 8.28.

As for `CC[C@H](C)[C@@H]1NC(=O)[C@H](Cc2ccc(OCCNC(=O)N3CCN(CC(=O)O)CC3)cc2)NC(=O)[C@H](Cc2ccc(O)cc2)NC(=O)[C@H](CC(N)=O)NC(=O)[C@H](Cc2cn(CC(=O)O)c3ccccc23)NC(=O)[C@H](C(C)C)NC(=O)[C@H](Cc2cccc(Cl)c2)N(C)C(=O)[C@H](C(C)C)NC(=O)[C@H](C)NC(=O)CSC[C@@H](C(=O)NCCOCCOCCOCCOCCC(N)=O)NC(=O)[C@H](Cc2ccc(O)cc2)N(C)C(=O)[C@H](Cc2ccncc2)NC(=O)[C@H](CCCCN2CCOCC2)NC(=O)[C@H](CCC(=O)NCCOCCOCCOCCOCCOCCOCCOCCOC)NC(=O)[C@H]([C@@H](C)CC)NC1=O` [compound 41], the pKd was 7.84 in test [1] (pH 7.4, single-cycle kinetics) and 7.04 in test [2] (pH 6.0, single-cycle kinetics).

As to `CC[C@H](C)[C@@H]1NC(=O)[C@H](Cc2ccc(OCC(=O)N3CCN(CC(=O)O)CC3)cc2)NC(=O)[C@H](Cc2ccc(N)nc2)NC(=O)[C@H](CC(N)=O)NC(=O)[C@H](Cc2cn(CC(=O)O)c3ccccc23)NC(=O)[C@H](C(C)C)NC(=O)[C@H](Cc2cccc(Cl)c2)N(C)C(=O)[C@H](C(C)C)NC(=O)[C@H](C)NC(=O)CSC[C@@H](C(=O)NCCOCCOCCOCCOCCC(N)=O)NC(=O)[C@H](Cc2ccc(C(=O)O)cc2)N(C)C(=O)[C@H](Cc2cccc(C(=O)O)c2)NC(=O)[C@H](CCCCN2CCOCC2)NC(=O)[C@H](CCC(N)=O)NC(=O)[C@H]([C@@H](C)CC)NC1=O` [compound 51] ({CH2CO}-AV[NMePhe(3-Cl)]V[Trp(1-CH2COOH)]N[3Pal(6-NH2)]Y(CH2CON(CH2CH2)2NCH2COOH)IIQ[Nle(6-morpholino)][Phe(3-COOH)][NMePhe(4-COOH)]C[PEG4]-NH2; thioether N-15), the negative-log Kd (pKd) was 5.81 in test [1] (pH 7.4, single-cycle kinetics) and 6.16 in test [2] (pH 6.0, single-cycle kinetics).

For the molecule `CC[C@H](C)[C@@H]1NC(=O)[C@H](Cc2ccc(OC)cc2)NC(=O)[C@H](Cc2ccc(N)nc2)NC(=O)[C@H](CC(N)=O)NC(=O)[C@H](Cc2cnc3ccccn23)NC(=O)[C@H](C(C)C)NC(=O)[C@H](Cc2ccccc2)N(C)C(=O)[C@H](C(C)C)NC(=O)[C@H](C)NC(=O)CSC[C@@H](C(=O)NCC(=O)N[C@@H](CCCCN=[N+]=[N-])C(N)=O)NC(=O)[C@H](Cc2ccc(C(=O)O)cc2)N(C)C(=O)[C@H](Cc2ccncc2)NC(=O)[C@H](CCCNC(=N)N)NC(=O)[C@H](CCCNC(=N)N)NC(=O)[C@H]([C@@H](C)CC)NC1=O` [compound 189] ({CH2CO}-AV[NMeF]V[Ala(imidazo(1,2-a)pyr3yl)]N[3Pal(6-NH2)]Y(Me)IIRR[4Pal][NMePhe(4-COOH)]CG[Lys(N3)]-NH2; thioether N-15), the pKd is 7.09 in test [1] (SPR, pH 7.4, Table 1-3-2-2) and 6.42 in test [2] (SPR, pH 6.0, Table 1-3-2-2).

For `CC[C@H](C)[C@@H]1NC(=O)[C@H](Cc2ccc(OCC(=O)O)cc2)NC(=O)[C@H](Cc2ccc(O)cc2)NC(=O)[C@H](CC(N)=O)NC(=O)[C@H](Cc2c[nH]c3ncccc23)NC(=O)[C@H](C(C)C)NC(=O)[C@H](Cc2cccc(Cl)c2)N(C)C(=O)[C@H](C(C)C)NC(=O)[C@H](C)NC(=O)CSC[C@@H](C(=O)NCCOCCOCCOCCOCCC(N)=O)NC(=O)[C@H](Cc2ccc(O)cc2)N(C)C(=O)[C@H](Cc2ccncc2)NC(=O)[C@H](CCCNC(=N)N)NC(=O)[C@H](CCC(=O)NCCOCCOCCOCCOCCOCCOCCOCCOCCC(=O)O)NC(=O)[C@H]([C@@H](C)CC)NC1=O` [compound 62], the pKd in test [1] (pH 7.4, single-cycle kinetics) was 7.55; in test [2] (pH 6.0, single-cycle kinetics) it was 7.04.

On to `CC[C@H](C)[C@@H]1NC(=O)[C@H](Cc2ccc(OC)cc2)NC(=O)[C@H](Cc2ccc(N)nc2)NC(=O)[C@H](CC(N)=O)NC(=O)[C@H](Cc2c[nH]c3ncccc23)NC(=O)[C@H](C(C)C)NC(=O)[C@H](Cc2cccc(Cl)c2)N(C)C(=O)[C@H](C(C)C)NC(=O)[C@H](C)NC(=O)CSC[C@@H](C(=O)NCCOCCOCCOCCOCCC(N)=O)NC(=O)[C@H](Cc2ccc(O)cc2)N(C)C(=O)[C@H](Cc2ccncc2)NC(=O)[C@H](CCCCN2CCOCC2)NC(=O)[C@H](CCCCN2CCOCC2)NC(=O)[C@H]([C@@H](C)CC)NC1=O` [compound 4] ({CH2CO}-AV[NMePhe(3-Cl)]V[Trp(7-aza)]N[3Pal(6-NH2)]Y(Me)II[Nle(6-morpholino)][Nle(6-morpholino)][4Pal][NMeY]C[PEG4]-NH2; thioether N-15), for which the pKd in test [1] (pH 7.4, single-cycle kinetics) was 8.66; in test [2] (pH 6.0, single-cycle kinetics), 7.53.

For the molecule `CC[C@H](C)[C@@H]1NC(=O)[C@H](Cc2ccc(OCC(=O)O)cc2)NC(=O)[C@H](Cc2ccc(N)nc2)NC(=O)[C@H](CC(N)=O)NC(=O)[C@H](Cc2c[nH]c3ncccc23)NC(=O)[C@H](C(C)C)NC(=O)[C@H](Cc2cccc(Cl)c2)N(C)C(=O)[C@H](C(C)C)NC(=O)[C@H](C)NC(=O)CSC[C@@H](C(=O)NCCOCCOCCOCCOCCC(N)=O)NC(=O)[C@H](Cc2ccc(O)cc2)N(C)C(=O)[C@H](Cc2ccncc2)NC(=O)[C@H](CCCCN2CCOCC2)NC(=O)[C@H](CCCCN2CCOCC2)NC(=O)[C@H]([C@@H](C)CC)NC1=O` [compound 7] ({CH2CO}-AV[NMePhe(3-Cl)]V[Trp(7-aza)]N[3Pal(6-NH2)]Y(Carboxymethyl)II[Nle(6-morpholino)][Nle(6-morpholino)][4Pal][NMeY]C[PEG4]-NH2; thioether N-15), the pKd in test [1] (pH 7.4, single-cycle kinetics) was 7.79; in test [2] (pH 6.0, single-cycle kinetics) it was 7.05.
